One data set deals with rats. The settings on record: intravenous; cited from earlier work.
Data set [1] has as its system normal animals and a model for non-insulin dependent diabetes mellitus. The settings on record: cited from earlier work.
Data set [2] concerns female Fisher 344 rats bearing rat mammary adenocarcinoma 13762. Kind of data set: Effect of creatine compounds on glucose levels in rats bearing tumors (i.v., days 4-8 and 14-18). The class given is in vivo. The settings on record: for Glucose Levels: i.v. days 4-8 and 14-18. The method, then: Two creatine compounds, creatine phosphate and cyclocreatine, were injected intravenously into tumor bearing rats, and the level of glucose in the rats was monitored. Beta guanidino propionic acid, also was administered. […] There was no specific reason for using tumor bearing rats, except convenience because the antitumor activity of these compounds also was being studied. The presence of the tumors should not have any effect on the ability of these compounds to regulate glucose levels. The rats carrying the tumors were described by us previously (see, […] et al., Cancer Chemother. Pharmacol, 35: 411-416, 1995). The schedule and dose selected in these experiments was based on prior experience working with this class of compounds as anticancer or antiviral chemotherapeutic agents. The rat mammary adenocarcinoma 13762 was implanted in the female Fisher 344 rats on day zero. The creatine compounds were administered intravenously on days 4-8 and days 14-18. The amounts used were 1 gm/kg of cyclocreatine, 0.93 gm/kg for beta guanidino propionic acid, and 2.32 gm/kg for creatine phosphate. […] Plasma glucose levels were measured at around 11 a.m., by taking a drop of blood from the animals and testing glucose levels using a commercial kit ([…] bG, Boehringer Mannheim). For animals that were treated with drugs, the treatment was around 9 a.m., and bleeding was also at around 11 a.m. To examine more closely what occurred in the above two experiments, the average readings of glucose levels from experiments one and two were taken in the following time intervals post drug treatment: Days 2-3, Days 4-8, Days 8-12, Days 14-18, Day 15 and Days 19-22.

For data set [3] the following is noted: in vivo; cited from earlier work.

This is an account of results in patent US20050256134A1, “Use of creatine analogues and creatine kinase modulators for the prevention and treatment of glucose metabolic disorders” (AVICENA GROUP, INC., priority 1995, published 2005).

Like-named read-outs stand apart in the source and are kept apart here. Where only a bound is given, the exact number is not on record here.

As for `N=C(N)NCCC[C@H](N)C(=O)O` [Arginine], in the data set with rats, the Glucose Levels result was “did not affect glucose levels” and the insulin release entry was “stimulated insulin release”.

For the molecule `N=C(N)NCCC(=O)O` [beta guanidino propionic acid], the Glucose Levels result in data set [1] (large amounts for several weeks) is recorded as “not to affect glucose levels”; in data set [1] (model for non-insulin dependent diabetes mellitus), “had an effect on glucose levels”; in data set [1] (normal animals), “not to affect glucose levels”; in data set [2] (Example 1) it was “Minimal changes in glucose levels”; in data set [2] (Example 2 (repeat)), “minimal effect”; in the data set with rats it was “did not affect glucose levels”. The “effects on glucose level” value in data set [2] (average of experiments one and two) is reported as less than 15%. For the same molecule, in the data set on rats, the insulin release entry is given as “stimulated insulin release”.

Take Augmentin: in data set [3], the hypoglycemic effect entry is “produced hypoglycemia”; the undesirable side effects entry is “hypertension and circulatory collapse”.
